One series relates to human whole blood. The experiment in a line: Human cytokine release assay, whole blood. It counts as cell-based.
The test system of another series is peripheral lymphocytes. The following applies: mice, 24 h after oral dosing; cited from earlier work.
Series [1] has as its target T1, S1P1 (Homo sapiens, UniProt P21453). Conditions: cited from earlier work.
The subject of a further series is IL10−/− mice. As to the kind of experiment: IL10−/− model of murine colitis. Type of series: in vivo, mouse. The protocol: IL10−/− and WT mice on the C57BL/6 background are monitored for body weight every other day. IL10−/− mice begins to manifest symptoms of colitis by 4 weeks of age compared with WT mice, including diarrhea and weight loss greater than 5%. Treatment protocols are initiated when the mice are between 14-18 weeks of age.
By 14−18 weeks of age, IL10−/− mice develop sufficiently severe symptoms of disease to being testing therapeutic treatments. For four weeks, mice are treated weekly with Intraperitoneal (I.P.) anti-TL1a injection and daily with oral FTY720 (S1PR inhibitor, anti-S1PR) according to Table 61. Group 1 serves as the naïve control and Group 2 is treated with isotype and vehicle controls. Groups 3 and 4 test the high dose of either TL1a or S1PR blockade, respectively. Groups 5 and 6 test the low dose of either TL1a or S1PR blockade. Groups 7 and 8 test the high and low dose combination therapies, respectively.
(§1) At day 28 after initiation of treatment, mice are anaesthetized and bled by cardiac puncture. Blood is kept on ice for 30 minutes and then spun down to separate the serum, which is stored at −80 C for cytokine measurement by MSD. After the terminal bleed, mice are euthanized by CO2 overdose per IACUC guidelines. Colons are harvested for each mouse and measured for length and weight. 1 cm of the middle colon is collected into RNAlater, and kept at room temperature for 2 hours prior to freezing at −80 C. The colonic tissue preserved in RNAlater is processed for mRNA and subjected to bulk RNA sequencing and standard differential gene expression analysis. The remainder of the proximal and distal colon is preserved in 10% NBF at room temperature for 48 hours prior to moving to 70% ethanol. These preserved colonic tissues are sectioned and stained by H&E prior to analysis by a veterinary pathologist for clinical signs of colitis.

The subject of series [2] is Rag2−/− mice receiving CD4+CD45RB+ T cells. The experiment in a line: T cell transfer model of murine colitis. It counts as in vivo, mouse.
From the text: The murine T cell transfer model of colitis is used to test the synergistic effect of blocking TL1A and S1P on the development of colitis using a mouse-specific TL1A antibody (anti-TL1A) and S1PR functional antagonist (FTY720). To initiate colitis, CD4+CD45RB+ T cells from the spleens of C57BL/6 mice are sorted to >95% purity and transferred by I.V. injection to Rag2−/− mice lacking mature B and T cells (0.5e6 cells/mouse), which are then randomized by weight on day 0. Mice are weighed and monitored for signs of disease every other day for 7 weeks.
One day prior to the initiation of disease (day-1) and weekly throughout the course of the experiment, mice are treated with a single I.P. injection of anti-TL1A in 0.2 ml total volume according to Table 64. In addition, FTY720 or the appropriate vehicle control is orally dosed daily according to Table 64. Group 1 serve as the naïve control and Group 2 is treated with isotype control antibodies. Groups 3 and 4 test the high dose of either anti-TL1A or FTY720, respectively. Groups 5 and 6 test the low dose of either anti-TL1A or FTY720. Groups 7 and 8 test the high and low dose combination therapies, respectively.
as §1, with “49” for “28”, “disease induction with CD4+CD45RB+ T cell transfer,” for “initiation of treatment,”, “and” for “and standard”, “These preserved colonic tissues are sectioned and stained by H&E prior to analysis by a veterinary pathologist for clinical signs of colitis.” left out

Series [3] addresses sphingosine-1-phosphate receptor 1 (S1P1) (Homo sapiens, UniProt P21453). The following applies: binding; cited from earlier work.
Series [4] has as its target T2, S1P3 (Homo sapiens, UniProt Q99500). The following applies: read-out: ED50 value on S1P3; cited from earlier work.
Target sequence in this assay (Q99500 whole entry, species assumed): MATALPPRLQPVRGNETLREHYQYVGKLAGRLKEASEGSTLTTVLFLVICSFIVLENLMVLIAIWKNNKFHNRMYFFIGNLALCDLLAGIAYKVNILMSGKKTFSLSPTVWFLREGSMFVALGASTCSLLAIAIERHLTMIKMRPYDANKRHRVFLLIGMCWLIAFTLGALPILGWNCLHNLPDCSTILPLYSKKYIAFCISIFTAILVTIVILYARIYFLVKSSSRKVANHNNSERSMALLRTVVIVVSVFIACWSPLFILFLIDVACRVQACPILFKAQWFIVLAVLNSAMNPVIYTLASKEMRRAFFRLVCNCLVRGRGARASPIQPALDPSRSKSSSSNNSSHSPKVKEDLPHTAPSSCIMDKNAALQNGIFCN
Series [5] concerns the target T1, S1P1. The following applies: read-out: ED50 value, agonistic activity on S1P1; cited from earlier work.
The target in series [6] is recombinant monkey S1P1 receptors. The following applies: read-out: EC50, agonist of S1P1 receptors; cited from earlier work.
In series [7] the target is T2, S1P3. Conditions: cited from earlier work.
Target sequence in this assay (Q99500 whole entry): as the sequence (Q99500 whole entry, species assumed) above
Series [8] has as its target recombinant dog S1P1 receptors. The following applies: read-out: EC50, agonist of S1P1 receptors; cited from earlier work.
The target of series [9] is human Sphingosine-1-phosphate receptor 2 (S1P2 or S1PR2) (Homo sapiens, UniProt O95136). The following applies: cited from earlier work.
The target in series [10] is recombinant mouse S1P1 receptors (Mus musculus, UniProt O08530). Conditions: read-out: EC50, agonist of S1P1 receptors; cited from earlier work.
A further series deals with human S1P5 (Homo sapiens, UniProt Q9H228). The following applies: cited from earlier work.
In series [11] the target is T3, S1P4 (Homo sapiens, UniProt O95977).
T3 sequence (O95977 1-384): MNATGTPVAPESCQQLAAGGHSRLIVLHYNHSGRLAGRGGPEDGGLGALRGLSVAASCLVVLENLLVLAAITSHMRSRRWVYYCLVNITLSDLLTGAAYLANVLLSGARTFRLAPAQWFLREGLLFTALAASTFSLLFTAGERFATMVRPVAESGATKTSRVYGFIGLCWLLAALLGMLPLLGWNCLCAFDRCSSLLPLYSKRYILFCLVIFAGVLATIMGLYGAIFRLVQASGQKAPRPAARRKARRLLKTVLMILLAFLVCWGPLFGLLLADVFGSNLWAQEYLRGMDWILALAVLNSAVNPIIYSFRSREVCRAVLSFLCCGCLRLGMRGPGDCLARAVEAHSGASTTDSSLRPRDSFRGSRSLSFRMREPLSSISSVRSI
Conditions: cited from earlier work.

Series [12] deals with CD20-expressing Raji cell. As to the kind of experiment: CDC positive control with Rituxan. Type of series: cell-based, human. The protocol:
Test articles were evaluated for CDC activity, compared to negative control Human IgG4 isotype control, on TL1A-expressing HEK293 target cells. Rituxan (anti-CD20) was used as a positive technical control on CD20-expressing Raji cell. All test articles were used at a final top concentration of 10 μg/mL followed by a five-fold dilution series (7 points total), in addition to a no treatment control, in triplicate. Cells were incubated with test articles for 15 minutes at 37 C, then treated with human complement, at a final concentration of 25%, for 3 hours at 37 C, 5% CO2. Following incubation, cells were washed and resuspended in Propidium Iodide (P.I.) at a final concentration of 5 μg/mL prior to flow cytometry analysis. Total cells were examined by flow cytometry during sample acquisition. Data were plotted on an XY chart, graphing percentage P.I. positive cells against the log of the concentration and fit to a non-linear regression curve. Cell cytotoxicity in the presence of all test articles was not distinguishable from cell cytotoxicity in the presence of isotype control (Table 12).

Series [13] addresses T2, S1P3. The following applies: cited from earlier work. This is another data set of the same source.
Target sequence in this assay (Q99500 whole entry, species assumed): as the sequence (Q99500 whole entry, species assumed) above
The target in series [14] is T3, S1P4. The following applies: cited from earlier work. The source holds these as a separate data set.
For the next series, the target named is S1P2 (Homo sapiens, UniProt O95136). Conditions: cited from earlier work.
For series [15], the target named is T1, S1P1. The following applies: cited from earlier work. This is another data set of the same source.
Series [16] has as its target T2, S1P3. Conditions: cited from earlier work. The source holds these as a separate data set.
Target sequence in this assay (Q99500 whole entry, species assumed): as the sequence (Q99500 whole entry, species assumed) above

pEC50: −log10 of the molar value. Entries after “also recorded” stand apart in the source; their conditions may differ. Like-named read-outs stand apart in the source and are kept apart here.

T1 sequence (P21453 whole entry, species assumed): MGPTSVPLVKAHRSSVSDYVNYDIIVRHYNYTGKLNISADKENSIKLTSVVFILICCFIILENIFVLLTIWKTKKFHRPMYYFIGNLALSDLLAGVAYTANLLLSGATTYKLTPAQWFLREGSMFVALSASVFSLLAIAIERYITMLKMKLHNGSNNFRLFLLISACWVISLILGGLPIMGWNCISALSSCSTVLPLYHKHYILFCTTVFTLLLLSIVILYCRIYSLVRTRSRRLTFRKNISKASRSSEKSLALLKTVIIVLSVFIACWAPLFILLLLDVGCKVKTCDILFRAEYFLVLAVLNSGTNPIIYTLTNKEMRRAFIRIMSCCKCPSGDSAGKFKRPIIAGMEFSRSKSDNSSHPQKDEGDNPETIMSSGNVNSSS
Sequence of human S1P5 (Q9H228 whole entry): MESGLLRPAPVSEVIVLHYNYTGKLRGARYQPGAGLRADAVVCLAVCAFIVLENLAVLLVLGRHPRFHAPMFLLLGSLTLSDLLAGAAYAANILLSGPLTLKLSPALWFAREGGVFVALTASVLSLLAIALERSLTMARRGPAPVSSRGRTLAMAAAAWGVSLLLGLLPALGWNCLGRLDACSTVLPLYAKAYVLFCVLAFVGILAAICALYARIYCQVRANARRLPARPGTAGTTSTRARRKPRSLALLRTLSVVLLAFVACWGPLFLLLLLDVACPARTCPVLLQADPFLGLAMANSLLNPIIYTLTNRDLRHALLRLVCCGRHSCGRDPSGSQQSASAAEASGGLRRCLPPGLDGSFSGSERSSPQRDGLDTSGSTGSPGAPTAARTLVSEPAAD
Sequence of recombinant mouse S1P1 receptors (O08530 whole entry): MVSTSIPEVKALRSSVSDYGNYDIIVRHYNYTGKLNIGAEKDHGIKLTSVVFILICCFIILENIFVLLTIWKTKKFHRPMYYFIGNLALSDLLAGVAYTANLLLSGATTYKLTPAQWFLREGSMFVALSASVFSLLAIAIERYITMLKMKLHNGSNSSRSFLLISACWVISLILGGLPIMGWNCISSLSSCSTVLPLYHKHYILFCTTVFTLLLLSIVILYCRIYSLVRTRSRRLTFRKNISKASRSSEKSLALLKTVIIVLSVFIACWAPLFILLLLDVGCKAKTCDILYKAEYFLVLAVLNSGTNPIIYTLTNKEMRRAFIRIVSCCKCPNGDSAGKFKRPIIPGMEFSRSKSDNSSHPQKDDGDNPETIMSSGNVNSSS
Sequence of sphingosine-1-phosphate receptor 1 (S1P1) (P21453 whole entry, species assumed): as the sequence (P21453 whole entry, species assumed) above
Sequence of human Sphingosine-1-phosphate receptor 2 (S1P2 or S1PR2) (O95136 whole entry): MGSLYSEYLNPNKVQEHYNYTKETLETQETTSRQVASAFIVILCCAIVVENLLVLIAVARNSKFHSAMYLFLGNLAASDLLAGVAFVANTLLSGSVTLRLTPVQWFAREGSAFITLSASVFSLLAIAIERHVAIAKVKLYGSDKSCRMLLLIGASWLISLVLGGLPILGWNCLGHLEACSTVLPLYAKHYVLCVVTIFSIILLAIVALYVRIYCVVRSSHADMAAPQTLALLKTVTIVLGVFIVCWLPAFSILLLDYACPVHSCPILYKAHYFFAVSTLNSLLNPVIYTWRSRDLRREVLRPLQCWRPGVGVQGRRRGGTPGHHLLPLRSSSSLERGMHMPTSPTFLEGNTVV
Sequence of S1P2 (O95136 whole entry, species assumed): as the sequence (O95136 whole entry) above

As to Staphylococcal enterotoxin B [SEB], the “cytokine release (IL-2, IL-6, IL-10, TNF, IFN-γ) in whole blood” value in the series with human whole blood is “induced IL-2, IL-6, IL-10, TNF, and IFN-γ release”.
Take `CCCc1ccc(COc2ccc3c(c2)CCC(CN2CC(C(=O)O)C2)=C3C)c(OC)c1` [ceralifimod, 1-({6-[(2-methoxy-4-propylbenzyl)oxy]-1-methyl-3,4-dihydronaphthalen-2-yl}methyl) azetidine-3-carboxylic acid]: in the series on peripheral lymphocytes, the “ED50, peripheral lymphocyte lowering (PLL) test” value is on record as 0.029 mg/kg. On S1P1 [1], the “selectivity for S1P1 over S1P3” value is reported as > 30 000 fold.
Consider `CCCCCCCCc1ccc(CCC(N)(CO)CO)cc1` [FTY720], for which the disease per histopathology result (in the series on IL10−/− mice (colonic tissue); in series [2] (colonic tissue)) was “reduces disease per histopathology in a dose dependent manner” throughout. Further, the “serum inflammatory cytokines (MSD)” value with IL10−/− mice (mouse, in vivo) is on record as “Reduced levels of inflammatory cytokines”; in [2] (mouse, in vivo), “Reduced levels of inflammatory cytokines”. Also, the body weight loss entry with IL10−/− mice (single agents, Groups 3-6) is reported as “alleviates body weight loss in a dose-dependent manner”; in series [2] (single agents, Groups 3-6) it was “alleviates body weight loss in a dose-dependent manner”.
Consider `NC(CO)(CO)CCc1ccc(Sc2cccc(OCc3ccccc3)c2)cc1Cl` [mocravimod, 2-amino-2-{2-[4-(3-benzyloxyphenylthio)-2-chlorophenyl]ethyl}-1,3-propanediol], for which the “selectivity for S1P1 over S1P2 and S1P5” value in series [3] is on record as 100 fold. In addition, the pEC50 at S1P3 [4] was less than 6.00; at S1P1 [5], 9.08.
Regarding `O=C(O)C[C@H]1CCc2c1[nH]c1ccc(OCc3ccc(C4CCCC4)c(C(F)(F)F)c3)cc21` [etrasimod, (R)-2-(7-(4-cyclopentyl-3-(trifluoromethyl)benzyloxy)-1,2,3,4-tetrahydrocyclopenta[b]indol-3-yl) acetic acid], the figures for the pEC50 in [6], in [8] and in [10] were 8.06, 8.38 and 8.44, respectively. Moreover, the “agonist or antagonist activity” value (at S1P3 [7]; in series [9]) was “neither agonist nor antagonist activity was observed” in each case. For the same compound, the “relative efficacy, % of S1P response” value on human S1P5 was 73%; on S1P4 [11], 63%.
With “Rituxan: anti-CD20 antibody, positive control in the CDC assay”, the “CDC bioactivity / complement-mediated lysis” value in series [12] is listed as “CDC bioactivity was observed; also recorded: expected increase in complement-mediated lysis”.
Take `CCCCCCCOc1ccc(CCC(N)(CO)CO)cc1C(F)(F)F` [amiselimod, 2-amino-2-{2-[4-(heptyloxy)-3-(trifluoromethyl)phenyl]ethyl}propan-1,3-diol]: the “agonist activity for S1P3” value at S1P3 [13] was “no distinct agonist activity”. Further, on S1P4 [14], the “agonist activity for S1P4” value is “minimal agonist activity”. Further, the “agonist activity for S1P2” value on S1P2 is “no distinct agonist activity”.
As to `CCC/N=C1\S/C(=C\c2ccc(OC[C@H](O)CO)c(Cl)c2)C(=O)N1c1ccccc1C` [ponesimod, (2Z,5Z)-5-[3-chloro-4-[(2R)-2,3-dihydroxypropoxy]benzylidene]-3-(2-methylphenyl)-2-(propylimino)-1,3-thiazolidin-4-one], the “S1P1 selectivity, higher compared with the natural ligand” value at S1P1 [15] (S1P1 versus S1P3) is listed as “approximately 650 fold”. Also, the “potency for S1P1, higher compared with the natural ligand” value on S1P1 [15] (compared with the natural ligand) is 4.4. In addition, at S1P1 [15] (read-out: half maximal effective concentration (EC50), S1P1 activation), the pEC50 is 8.24. In addition, at S1P3 [16], the “potency for S1P3, lower compared with the natural ligand” value is on record as 150 fold.

The values above are taken from patent US20260216326A1, “METHODS OF TREATING INFLAMMATORY DISEASES WITH COMBINATION OF TL1A INHIBITORS AND S1PR INHIBITORS” (Prometheus Biosciences, Inc., priority 2022, published 2026).
